Results taken from patent US20250145633A1, “SUBSTITUTED FURANOPYRIMIDINE COMPOUNDS AS PDE1 INHIBITORS” (Dart NeuroScience, LLC, priority 2017, published 2025).
Where two headings read alike, the source gives them in different places.

Target: human PDE1B enzyme (Homo sapiens (Human), UniProt Q01064)
Experiment: IMAP TR-FRET PDE1B enzymatic assay
Assay type: biochemical
Outline: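 Full-length GST-tagged human PDE1B (250 pg/well) in IMAP BSA buffer with 10 U/ml calmodulin and 2.5 mM CaCl2; compound pre-incubated 5 min at room temperature, then 200 nM (final) FAM-cAMP for 30 min. IMAP binding reagent/Tb added, 1 h; TR-FRET 520/490 ratio read. IC50 from sigmoidal dose-response fit.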

[1] = negative log of half-maximal molar inhibitory concentration, 200 nM FAM-cAMP, values given as bins, read-out: PDE1b (pIC50) (converted)
[2] = negative log of half-maximal molar inhibitory concentration, 200 nM FAM-cAMP, values given as bins

Compound | IC50 [1] [µM] | further results
Cc1oc2ncnc(NC3(C)CC3)c2c1C(=O)N1CCC(C#N)(c2ccccc2)CC1 [Example 274, 1-{6-Methyl-4-[(1-methylcyclopropyl)amino]furo[2,3-d]pyrimidine-5-carbonyl}-4-phenylpiperidine-4-carbonitrile] | – | IC50: 0.01 to 0.1 µM
CCOCC1(CNC(=O)c2c(C)oc3ncnc(NC4(C)CC4)c23)CC1 [Example 275, N-{[1-(Ethoxymethyl)cyclopropyl]methyl}-6-methyl-4-[(1-methylcyclopropyl)amino]furo[2,3-d]pyrimidine-5-carboxamide] | 0.01 to 0.1 | –
Cc1oc2ncnc(NC3(C)CC3)c2c1C(=O)N1CC2C(C1)C2(C)C (stereo not shown) [Example 278, 5-{6,6-Dimethyl-3-azabicyclo[3.1.0]hexane-3-carbonyl}-6-methyl-(1-methylcyclopropyl)furo[2,3-d]pyrimidin-4-amine] | 0.01 to 0.1 | –
Cc1oc2ncnc(NC3(C)CC3)c2c1C(=O)N1C[C@@H]2[C@H](C1)[C@H]2c1ccc(F)cc1 [Example 279, 5-[(1R,5S,6S)-6-(4-Fluorophenyl)-3-azabicyclo[3.1.0]hexane-3-carbonyl]-6-methyl-N-(1-methylcyclopropyl)furo[2,3-d]pyrimidin-4-amine] | 0.01 to 0.1 | –
Cc1oc2ncnc(NC3(C)CC3)c2c1C(=O)NCc1cccc(F)n1 [Example 280, N-[(6-Fluoropyridin-2-yl)methyl]-6-methyl-4-[(1-methylcyclopropyl)amino]furo[2,3-d]pyrimidine-5-carboxamide] | 0.01 to 0.1 | –
Cc1oc2ncnc(NC3(C)CC3)c2c1C(=O)NC1(c2ccc(F)cn2)CC1 [Example 281, N-[1-(5-Fluoropyridin-2-yl)cyclopropyl]-6-methyl-4-[(1-methylcyclopropyl)amino]furo[2,3-d]pyrimidine-5-carboxamide] | 0.01 to 0.1 | –
Cc1oc2ncnc(NC3(C)CC3)c2c1C(=O)N1CCN(c2ccc(F)nc2)CC1 [Example 282, 5-[4-(6-Fluoropyridin-3-yl)piperazine-1-carbonyl]-6-methyl-N-(1-methylcyclopropyl)furo[2,3-d]pyrimidin-4-amine] | 0.01 to 0.1 | –
Cc1cc2c(cn1)CCN(C(=O)c1c(C)oc3ncnc(NC4(C)CC4)c13)C2 [Example 283, 6-Methyl-5-(7-methyl-1,2,3,4-tetrahydro-2,6-naphthyridine-2-carbonyl)-N-(1-methylcyclopropyl)furo[2,3-d]pyrimidin-4-amine] | 0.01 to 0.1 | –
Cc1ccc2c(n1)CCN(C(=O)c1c(C)oc3ncnc(NC4(C)CC4)c13)C2 [Example 284, 6-Methyl-5-(2-methyl-5,6,7,8-tetrahydro-1,6-naphthyridine-6-carbonyl)-N-(1-methylcyclopropyl)furo[2,3-d]pyrimidin-4-amine] | 0.01 to 0.1 | –
Cc1oc2ncnc(NC3(C)CC3)c2c1C(=O)N1CCc2c(ccnc2Cl)C1 [Example 285, 5-(5-Chloro-1,2,3,4-tetrahydro-2,6-naphthyridine-2-carbonyl)-6-methyl-N-(1-methylcyclopropyl)furo[2,3-d]pyrimidin-4-amine] | 0.01 to 0.1 | –
Cc1oc2ncnc(NC3(C)CC3)c2c1C(=O)N1CCc2ccc(Cl)nc2C1 [Example 286, 5-(2-Chloro-5,6,7,8-tetrahydro-1,7-naphthyridine-7-carbonyl)-6-methyl-N-(1-methylcyclopropyl)furo[2,3-d]pyrimidin-4-amine] | 0.01 to 0.1 | –
Cc1oc2ncnc(NC3(C)CC3)c2c1C(=O)N1CCc2nc(Cl)ccc2C1 [Example 287, 5-(2-Chloro-5,6,7,8-tetrahydro-1,6-naphthyridine-6-carbonyl)-6-methyl-N-(1-methylcyclopropyl)furo[2,3-d]pyrimidin-4-amine] | 0.01 to 0.1 | –
Cc1oc2ncnc(NC3(C)CC3)c2c1C(=O)N1CCc2nnc(Cl)cc2C1 [Example 288, 5-{3-Chloro-5H,6H,7H,8H-pyrido[4,3-c]pyridazine-6-carbonyl}-6-methyl-N-(1-methylcyclopropyl)furo[2,3-d]pyrimidin-4-amine] | 0.1 to 1 | –
Cc1oc2ncnc(NC3(C)CC3)c2c1C(=O)N1CCc2nc(Cl)ncc2C1 [Example 289, 5-{2-Chloro-5H,6H,7H,8H-pyrido[4,3-d]pyrimidine-6-carbonyl}-6-methyl-N-(1-methylcyclopropyl)furo[2,3-d]pyrimidin-4-amine] | 0.01 to 0.1 | –
Cc1oc2ncnc(NC3(C)CC3)c2c1C(=O)N1CCc2nc(C3CCOCC3)ccc2C1 [Example 290, 6-Methyl-N-(1-methylcyclopropyl)-5-[2-(oxan-4-yl)-5,6,7,8-tetrahydro-1,6-naphthyridine-6-carbonyl]furo[2,3-d]pyrimidin-4-amine] | 0.01 to 0.1 | –
Cc1oc2ncnc(NC3(C)CC3)c2c1C(=O)NCc1cccnc1F [Example 291, N-[(2-Fluoropyridin-3-yl)methyl]-6-methyl-4-[(1-methylcyclopropyl)amino]furo[2,3-d]pyrimidine-5-carboxamide] | 0.01 to 0.1 | –
Cc1oc2ncnc(NC3(C)CC3)c2c1C(=O)NCc1ncc(F)cn1 [Example 292, N-[(5-Fluoropyrimidin-2-yl)methyl]-6-methyl-4-[(1-methylcyclopropyl)amino]furo[2,3-d]pyrimidine-5-carboxamide] | 0.01 to 0.1 | –
Cc1oc2ncnc(NC3(C)CC3)c2c1C(=O)NCc1ccc(F)nc1 [Example 293, N-[(6-Fluoropyridin-3-yl)methyl]-6-methyl-4-[(1-methylcyclopropyl)amino]furo[2,3-d]pyrimidine-5-carboxamide] | 0.01 to 0.1 | –
Cc1oc2ncnc(NC3(C)CC3)c2c1C(=O)N1CCc2cnc(C(C)C)nc2C1 [Example 294, 6-Methyl-N-(1-methylcyclopropyl)-5-[2-(propan-2-yl)-5H,6H,7H,8H-pyrido[3,4-d]pyrimidine-7-carbonyl]furo[2,3-d]pyrimidin-4-amine] | 0.01 to 0.1 | –
Cc1oc2ncnc(NC3(C)CC3)c2c1C(=O)N1CCCCC(c2ccc(F)cc2)C1 (stereo not shown) [Example 295, 5-[3-(4-Fluorophenyl)azepane-1-carbonyl]-6-methyl-N-(1-methylcyclopropyl)furo[2,3-d]pyrimidin-4-amine] | 0.01 to 0.1 | –
Cc1oc2ncnc(NC3(C)CC3)c2c1C(=O)N1CCCC(c2ccc(F)cc2)CC1 (stereo not shown) [Example 296, 5-[4-(4-Fluorophenyl)azepane-1-carbonyl]-6-methyl-N-(1-methylcyclopropyl)furo[2,3-d]pyrimidin-4-amine] | – | PDE1b (pIC50) [2]: >8
Cc1oc2ncnc(NC3(C)CC3)c2c1C(=O)NC1(CCO)CC1 [Example 297, N-[1-(2-Hydroxyethyl)cyclopropyl]-6-methyl-4-[(1-methylcyclopropyl)amino]furo[2,3-d]pyrimidine-5-carboxamide] | 0.01 to 0.1 | –
COc1ccc(C2(NC(=O)c3c(C)oc4ncnc(NC5(C)CC5)c34)CC2)cc1F [Example 298, N-[1-(3-Fluoro-4-methoxyphenyl)cyclopropyl]-6-methyl-4-[(1-methylcyclopropyl)amino]furo[2,3-d]pyrimidine-5-carboxamide] | – | PDE1b (pIC50) [2]: >8
Cc1oc2ncnc(NC3(C)CC3)c2c1C(=O)N1CCc2cnc(C3CC3)nc2C1 [Example 299, 5-{2-Cyclopropyl-5H,6H,7H,8H-pyrido[3,4-d]pyrimidine-7-carbonyl}-6-methyl-N-(1-methylcyclopropyl)furo[2,3-d]pyrimidin-4-amine] | 0.01 to 0.1 | –
Cc1oc2ncnc(NC3(C)CC3)c2c1C(=O)NC1(C2CCOCC2)CC1 [Example 300, 6-Methyl-4-[(1-methylcyclopropyl)amino]-N-[1-(oxan-4-yl)cyclopropyl]furo[2,3-d]pyrimidine-5-carboxamide] | 0.01 to 0.1 | –
